Data: PubChem BioAssay (NCI)
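Briefly, cells in 96-well plates were exposed to five compound concentrations for 48 h, and endpoints were estimated by linear interpolation. TGI is the concentration that stops growth completely.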

How the values were obtained:
Experiment in all cases: NCI tumour cell line growth inhibition, 48 h
[1] = tested on: 786-0 renal
[2] = tested on: SNB-19 CNS
[3] = tested on: SNB-75 CNS
[4] = tested on: SF-295 CNS
[5] = tested on: M14 melanoma
[6] = tested on: NCI-H23 lung
[7] = tested on: OVCAR-8 ovarian
[8] = tested on: OVCAR-3 ovarian
[9] = tested on: UO-31 renal
[10] = tested on: RPMI-8226 leukemia
[11] = tested on: DMS 273 small cell lung
[12] = tested on: A498 renal
[13] = tested on: SK-MEL-5 melanoma
[14] = tested on: SW-620 colon
[15] = tested on: HL-60(TB) leukemia
[16] = tested on: K-562 leukemia
[17] = tested on: M19-MEL melanoma
[18] = tested on: NCI-H460 lung
[19] = tested on: SR leukemia
[20] = tested on: XF 498 CNS
[21] = tested on: IGROV1 ovarian
[22] = tested on: DMS 114 small cell lung
[23] = tested on: LXFL 529 NSCLC
[24] = tested on: SF-539 CNS
[25] = tested on: OVCAR-5 ovarian
[26] = tested on: HCT-116 colon
[27] = tested on: A549 NSCLC
[28] = tested on: CCRF-CEM leukemia
[29] = tested on: OVCAR-4 ovarian
[30] = tested on: HOP-62 NSCLC
[31] = tested on: SNB-78 CNS
[32] = tested on: KM12 colon
[33] = tested on: COLO 205 colon
[34] = tested on: SK-OV-3 ovarian
[35] = tested on: KM20L2 colon
[36] = tested on: TK-10 renal
[37] = tested on: MALME-3M melanoma
[38] = tested on: SF-268 CNS
[39] = tested on: UACC-62 melanoma
[40] = tested on: SK-MEL-28 melanoma
[41] = tested on: SN12C renal
[42] = tested on: RXF 393 renal
[43] = tested on: NCI-H226 lung
[44] = tested on: HCC-2998 colon
[45] = tested on: HT29 colon
[46] = tested on: UACC-257 melanoma
[47] = tested on: NCI-H522 lung
[48] = tested on: DLD-1 colon
[49] = tested on: EKVX NSCLC
[50] = tested on: HOP-92 NSCLC
[51] = tested on: U251 CNS
[52] = tested on: CAKI-1 renal
[53] = tested on: ACHN renal
[54] = tested on: LOX IMVI melanoma
[55] = tested on: HCT-15 colon
[56] = tested on: MOLT-4 leukemia
[57] = tested on: SK-MEL-2 melanoma

With CCOC(=O)C1N(S(=O)(=O)c2ccc(C)cc2)CCC12c1ccccc1NC2c1ccc(OC)c(OC)c1 (stereo not drawn) the TGI [1] was > 100 µM, the TGI [2] was > 100 µM and the TGI [3] was > 100 µM. The TGI [4] was > 100 µM, the TGI [5] was > 100 µM and the TGI [6] was > 100 µM. For the same molecule, the TGI [7] was > 100 µM, the TGI [8] was > 100 µM and the TGI [9] was > 100 µM. For the same molecule, the TGI [10] was > 100 µM, the TGI [11] was > 100 µM and the TGI [12] was > 100 µM. The TGI [13] was > 100 µM, the TGI [14] was > 100 µM and the TGI [15] was > 100 µM. For the same molecule, the TGI [16] was > 100 µM, the TGI [17] was > 100 µM and the TGI [18] was > 100 µM. For the same molecule, the TGI [19] was > 100 µM, the TGI [20] was > 100 µM and the TGI [21] was 34 µM. For the same molecule, the TGI [22] was > 100 µM, the TGI [23] was > 100 µM and the TGI [24] was > 100 µM. For the same molecule, the TGI [25] was > 100 µM, the TGI [26] was > 100 µM and the TGI [27] was > 100 µM. The TGI [28] was > 100 µM, the TGI [29] was > 100 µM and the TGI [30] was > 100 µM. For the same molecule, the TGI [31] was > 100 µM, the TGI [32] was > 100 µM and the TGI [33] was > 100 µM. The TGI [34] was > 100 µM, the TGI [35] was > 100 µM and the TGI [36] was > 100 µM. The TGI [37] was > 100 µM, the TGI [38] was > 100 µM and the TGI [39] was > 100 µM. The TGI [40] was > 100 µM, the TGI [41] was > 100 µM and the TGI [42] was > 100 µM. For the same molecule, the TGI [43] was > 100 µM, the TGI [44] was > 100 µM and the TGI [45] was > 100 µM. The TGI [46] was > 100 µM, the TGI [47] was > 100 µM and the TGI [48] was > 100 µM. For the same molecule, the TGI [49] was > 100 µM, the TGI [50] was 24.4 µM and the TGI [51] was > 100 µM. The TGI [52] was > 100 µM, the TGI [53] was > 100 µM and the TGI [54] was > 100 µM. The TGI [55] was > 100 µM.

With N#CC(/C(=N/N=C(N)N)C(=O)Nc1ccccc1[N+](=O)[O-])c1nc(-c2ccc([N+](=O)[O-])cc2)cs1 (stereo not drawn) the TGI [56] was > 100 µM, the TGI [1] was > 100 µM and the TGI [2] was > 100 µM. The TGI [3] was > 100 µM, the TGI [4] was > 100 µM and the TGI [5] was > 100 µM. For the same molecule, the TGI [6] was > 100 µM, the TGI [7] was > 100 µM and the TGI [8] was > 100 µM. For the same molecule, the TGI [9] was > 100 µM, the TGI [10] was > 100 µM and the TGI [11] was > 100 µM. For the same molecule, the TGI [12] was > 100 µM, the TGI [13] was > 100 µM and the TGI [14] was > 100 µM. For the same molecule, the TGI [15] was > 100 µM, the TGI [16] was > 100 µM and the TGI [17] was > 100 µM. The TGI [18] was > 100 µM, the TGI [19] was > 100 µM and the TGI [20] was > 100 µM. For the same molecule, the TGI [21] was > 100 µM, the TGI [22] was > 100 µM and the TGI [57] was > 100 µM. For the same molecule, the TGI [23] was > 100 µM, the TGI [24] was > 100 µM and the TGI [25] was > 100 µM. The TGI [26] was > 100 µM, the TGI [27] was > 100 µM and the TGI [28] was > 100 µM. For the same molecule, the TGI [29] was > 100 µM, the TGI [30] was > 100 µM and the TGI [31] was > 100 µM. The TGI [32] was > 100 µM, the TGI [33] was > 100 µM and the TGI [34] was > 100 µM. For the same molecule, the TGI [35] was > 100 µM, the TGI [36] was > 100 µM and the TGI [37] was > 100 µM. The TGI [38] was > 100 µM, the TGI [39] was > 100 µM and the TGI [40] was > 100 µM. The TGI [41] was > 100 µM, the TGI [42] was > 100 µM and the TGI [43] was > 100 µM. For the same molecule, the TGI [44] was > 100 µM, the TGI [45] was > 100 µM and the TGI [46] was > 100 µM. The TGI [47] was > 100 µM, the TGI [48] was > 100 µM and the TGI [49] was > 100 µM. For the same molecule, the TGI [51] was > 100 µM, the TGI [52] was > 100 µM and the TGI [53] was > 100 µM. For the same molecule, the TGI [54] was > 100 µM and the TGI [55] was > 100 µM.

In the case of Oc1c(-c2ccccc2)nc2ccccn12, the TGI [56] is reported as > 100 µM, the TGI [1] is reported as > 100 µM and the TGI [2] is reported as > 100 µM. For the same molecule, the TGI [3] was > 100 µM, the TGI [4] was > 100 µM and the TGI [5] was > 100 µM. For the same molecule, the TGI [6] was > 100 µM, the TGI [7] was > 100 µM and the TGI [8] was > 100 µM. For the same molecule, the TGI [9] was > 100 µM, the TGI [11] was > 100 µM and the TGI [12] was > 100 µM. The TGI [13] was > 100 µM, the TGI [14] was > 100 µM and the TGI [15] was > 100 µM. The TGI [16] was > 100 µM, the TGI [17] was > 100 µM and the TGI [18] was > 100 µM. For the same molecule, the TGI [19] was > 100 µM, the TGI [20] was > 100 µM and the TGI [21] was > 100 µM. For the same molecule, the TGI [22] was > 100 µM, the TGI [57] was > 100 µM and the TGI [23] was > 100 µM. For the same molecule, the TGI [24] was > 100 µM, the TGI [25] was > 100 µM and the TGI [26] was > 100 µM. The TGI [27] was > 100 µM, the TGI [28] was > 100 µM and the TGI [29] was > 100 µM. The TGI [30] was > 100 µM, the TGI [31] was > 100 µM and the TGI [32] was > 100 µM. The TGI [34] was > 100 µM, the TGI [35] was > 100 µM and the TGI [36] was > 100 µM. For the same molecule, the TGI [37] was > 100 µM, the TGI [38] was > 100 µM and the TGI [39] was > 100 µM. For the same molecule, the TGI [40] was > 100 µM, the TGI [41] was > 100 µM and the TGI [42] was > 100 µM. For the same molecule, the TGI [43] was > 100 µM, the TGI [44] was > 100 µM and the TGI [45] was > 100 µM. The TGI [46] was > 100 µM, the TGI [47] was > 100 µM and the TGI [48] was > 100 µM. For the same molecule, the TGI [49] was > 100 µM, the TGI [51] was > 100 µM and the TGI [52] was > 100 µM. For the same molecule, the TGI [53] was > 100 µM.
